ChEMBL document CHEMBL1133537, “Chiral derivatives of 2-cyclohexylideneperhydro-4,7-methanoindenes, a novel class of nonsteroidal androgen receptor ligand: synthesis, X-ray analysis, and biological activity” (J Med Chem, 2000)

Key:
[1] = target: T1, Androgen receptor (Rattus norvegicus, UniProt P15207); assay: […] binding affinity fot cytosolic androgen receptor
T1 sequence (P15207 whole entry): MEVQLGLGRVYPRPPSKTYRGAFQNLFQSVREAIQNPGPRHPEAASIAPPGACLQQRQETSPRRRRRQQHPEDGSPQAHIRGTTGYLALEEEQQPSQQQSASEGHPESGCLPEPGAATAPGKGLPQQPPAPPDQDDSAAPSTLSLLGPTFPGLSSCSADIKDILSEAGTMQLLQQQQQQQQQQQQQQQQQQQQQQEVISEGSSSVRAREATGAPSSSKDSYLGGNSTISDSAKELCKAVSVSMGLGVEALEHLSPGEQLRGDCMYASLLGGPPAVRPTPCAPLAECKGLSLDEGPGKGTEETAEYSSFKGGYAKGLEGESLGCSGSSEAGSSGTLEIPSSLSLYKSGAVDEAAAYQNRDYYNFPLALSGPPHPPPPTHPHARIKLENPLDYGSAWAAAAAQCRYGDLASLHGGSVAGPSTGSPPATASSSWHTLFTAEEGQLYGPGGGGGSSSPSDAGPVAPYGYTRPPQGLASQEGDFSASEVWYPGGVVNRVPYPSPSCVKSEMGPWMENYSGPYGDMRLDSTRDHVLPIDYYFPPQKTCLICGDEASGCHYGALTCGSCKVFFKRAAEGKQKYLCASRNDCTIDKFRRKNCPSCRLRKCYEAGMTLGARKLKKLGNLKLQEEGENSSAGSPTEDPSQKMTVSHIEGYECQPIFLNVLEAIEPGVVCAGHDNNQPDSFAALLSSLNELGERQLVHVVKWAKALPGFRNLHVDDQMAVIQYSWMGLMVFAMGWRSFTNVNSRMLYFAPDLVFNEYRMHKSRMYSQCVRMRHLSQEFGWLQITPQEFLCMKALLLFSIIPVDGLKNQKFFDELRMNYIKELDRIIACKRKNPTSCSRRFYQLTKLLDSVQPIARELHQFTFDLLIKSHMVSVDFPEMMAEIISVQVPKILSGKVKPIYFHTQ

[2] = Eudismic ratio which is the ratio of potency of eutomer and distomer.
[3] = target: T1, Androgen receptor
Description: Ability to inhibit binding of [3H]R-1881 to rat ventral prostate cytosolic androgen receptor was measured in a radioligand binding assay.

Row | Structure (SMILES) | Ki [1] [nM] | Ratio [2] | IC50 [3] [µM]
1 | O=C1CCC(=C2C[C@@H]3[C@H](C2)[C@@H]2C[C@H]3[C@H](O)C2)CC1 | 450 | 15.5 | 35.9
2 | C=C[C@@]1(O)C[C@H]2C[C@@H]1[C@@H]1CC(=C3CCC(=O)CC3)C[C@H]21 |  |  | 62.5
3 | C#C[C@]1(O)CC[C@H]2[C@@H]3CCC4Cc5nn(S(C)(=O)=O)cc5C[C@]4(C)[C@H]3CC[C@@]21C (stereo partly drawn) | 2200 |  | 
4 | C#C[C@]1(O)C[C@@H]2C[C@H]1[C@H]1CC(=C3CCC(=O)CC3)C[C@@H]21 |  |  | 13.5
5 | C#C[C@@]1(O)C[C@H]2C[C@@H]1[C@@H]1CC(=C3CCC(=O)CC3)C[C@H]21 |  | 4.2 | 57
6 | O=C1CCC(=C2C[C@@H]3[C@H](C2)[C@@H]2C[C@H]3[C@@H](O)C2)CC1 |  | 2.7 | 3.9
7 | O=C1CCC(=C2C[C@@H]3[C@@H]4C[C@H]([C@@H]3C2)[C@@](O)(C(F)(F)F)C4)CC1 |  | 2.6 | 41.2
8 | O=C1CCC(=C2C[C@H]3[C@H]4C[C@@H]([C@H]3C2)[C@](O)(C(F)(F)F)C4)CC1 |  |  | 15.6
9 | O=C1CCC(=C2C[C@H]3[C@@H]4CC(=O)[C@@H](C4)[C@H]3C2)CC1 |  |  | 14.2
10 | O=C1CCC(=C2C[C@H]3[C@@H](C2)[C@H]2C[C@@H]3[C@H](O)C2)CC1 |  |  | 10.4
11 | C[C@@]1(O)C[C@H]2C[C@@H]1[C@@H]1CC(=C3CCC(=O)CC3)C[C@H]21 |  |  | 27.4
12 | O=C1CCC(=C2C[C@@H]3[C@H]4CC(=O)[C@H](C4)[C@@H]3C2)CC1 |  | 2.3 | 33
